Data taken from the supplement of paper PMC11061612.

Tests used:
Assay in all cases: combination Emax (second highest fraction inhibited in the dose matrix, 72 h); higher = more inhibition; extreme values may be limits of the assay
[1] = system: EM-2 (Chronic Myelogenous Leukemia)
Procedure, shortened: (§1)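 Cell lines grown in DMEM/F12 or RPMI with 10% FBS were plated in 1536-well plates and held 24 hours at 37°C, 5% CO2 before 72 hours of exposure to two-drug dose matrices, with DMSO typically at 0.2%. CellTiter-Glo 2.0 luminescence gave viability, which was converted to inhibition. Vehicle wells were set to 0 and blank wells to 1. Combination Emax is the second-highest inhibition in the matrix, and Bliss excess is the observed combination effect minus the expected EA + EB − EA·EB, where EA and EB are the single-agent effects.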

[2] = system: CFPAC-1 (Pancreatic Carcinoma)
Procedure, shortened: as §1

[3] = system: DB (B-Cell Non-Hodgkin's Lymphoma)
Procedure, shortened: as §1

ES7 (Ewing's Sarcoma) = system: ES7 (Ewing's Sarcoma)
Procedure, shortened: as §1

DSH1 (Bladder Carcinoma) = system: DSH1 (Bladder Carcinoma)
Procedure, shortened: as §1

CAL-78 (Chondrosarcoma) = system: CAL-78 (Chondrosarcoma)
Procedure, shortened: as §1

[4] = system: LU-99A (Non-Small Cell Lung Carcinoma)
Procedure, shortened: as §1

[5] = system: SUIT-2 (Pancreatic Carcinoma)
Procedure, shortened: as §1

J82 (Bladder Carcinoma) = system: J82 (Bladder Carcinoma)
Procedure, shortened: as §1

[6] = system: KM-H2 (Hodgkin's Lymphoma)
Procedure, shortened: as §1

[7] = system: KARPAS-620 (Plasma Cell Myeloma)
Procedure, shortened: as §1

[8] = system: CTV-1 (T-Lymphoblastic Leukemia)
Procedure, shortened: as §1

NCI-H2369 (Mesothelioma) = system: NCI-H2369 (Mesothelioma)
Procedure, shortened: as §1

[9] = system: MDA-MB-231 (Breast Carcinoma)
Procedure, shortened: as §1

[10] = system: COR-L23 (Non-Small Cell Lung Carcinoma)
Procedure, shortened: as §1

RH-1 (Ewing's Sarcoma) = system: RH-1 (Ewing's Sarcoma)
Procedure, shortened: as §1

[11] = system: U-266 (Plasma Cell Myeloma)
Procedure, shortened: as §1

[12] = system: SNU-C5 (Colorectal Carcinoma)
Procedure, shortened: as §1

[13] = system: HT-29 (Colorectal Carcinoma)
Procedure, shortened: as §1

[14] = system: HCC2157 (Breast Carcinoma)
Procedure, shortened: as §1

Compound: C=CCn1c(=O)c2cnc(Nc3ccc(N4CCN(C)CC4)cc3)nc2n1-c1cccc(C(C)(C)O)n1 [AZD1775] + C1CN(CCC1(C(=O)N[C@@H](CCO)C2=CC=C(C=C2)Cl)N)C3=NC=NC4=C3C=CN4 [Capivasertib] (first compound max 3 µM, partner max 3 µM)
- combination Emax [1]: 0.948
- combination Emax [2]: 0.723
- combination Emax [3]: 0.893
- combination Emax (ES7 (Ewing's Sarcoma)): 0.808
- combination Emax (DSH1 (Bladder Carcinoma)): 0.789
- combination Emax (CAL-78 (Chondrosarcoma)): 0.733
- combination Emax [4]: 0.623
- combination Emax [5]: 0.586
- combination Emax (J82 (Bladder Carcinoma)): 0.468
- combination Emax [6]: 0.949
- combination Emax [7]: 0.857
- combination Emax [8]: 0.983
- combination Emax (NCI-H2369 (Mesothelioma)): 0.3
- combination Emax [9]: 0.624
- combination Emax [10]: 0.895
- combination Emax (RH-1 (Ewing's Sarcoma)): 0.98
- combination Emax [11]: 0.795
- combination Emax [12]: 0.795
- combination Emax [13]: 0.834

Compound: CN(CCO)CC[C@H](CSc1ccccc1)Nc1ccc(S(=O)(=O)NC(=O)c2ccc(N3CCC([C@@H](O)c4ccccc4-c4ccc(Cl)cc4)CC3)cc2)cc1S(=O)(=O)C(F)(F)F [AZD4320] + C=CCn1c(=O)c2cnc(Nc3ccc(N4CCN(C)CC4)cc3)nc2n1-c1cccc(C(C)(C)O)n1 [AZD1775] (first compound max 1 µM, partner max 1 µM)
- combination Emax [1]: 0.99
- combination Emax [14]: 0.969
- combination Emax [2]: 0.699
- combination Emax [3]: 1
- combination Emax (ES7 (Ewing's Sarcoma)): 0.935
- combination Emax (DSH1 (Bladder Carcinoma)): 0.799
- combination Emax (CAL-78 (Chondrosarcoma)): 0.846
- combination Emax [4]: 0.762
- combination Emax [5]: 0.491
- combination Emax (J82 (Bladder Carcinoma)): 0.117
- combination Emax [6]: 0.979
- combination Emax [7]: 1
- combination Emax (NCI-H2369 (Mesothelioma)): 0.189
- combination Emax [9]: 0.716
- combination Emax [10]: 0.656
- combination Emax (RH-1 (Ewing's Sarcoma)): 0.986
- combination Emax [11]: 0.95
- combination Emax [12]: 0.619
- combination Emax [13]: 0.965

Compound: CN(CCO)CC[C@H](CSc1ccccc1)Nc1ccc(S(=O)(=O)NC(=O)c2ccc(N3CCC([C@@H](O)c4ccccc4-c4ccc(Cl)cc4)CC3)cc2)cc1S(=O)(=O)C(F)(F)F [AZD4320] + CN(C)CCCOc1ccc(-c2ccc3ncc4c(c3c2)n(C2CCOCC2)c(=O)n4C)cn1 [AZD0156] (first compound max 1 µM, 7x7, partner max 1 µM)
- combination Emax [1]: 0.968
- combination Emax [14]: 0.936
- combination Emax [2]: 0.115
- combination Emax [3]: 0.933
- combination Emax (ES7 (Ewing's Sarcoma)): 0.747
- combination Emax (DSH1 (Bladder Carcinoma)): 0.369
- combination Emax [4]: 0.292
- combination Emax [5]: 0.0928
- combination Emax (J82 (Bladder Carcinoma)): 0.122
- combination Emax [6]: 0.155
- combination Emax [7]: 1
- combination Emax [8]: 0.211
- combination Emax (NCI-H2369 (Mesothelioma)): 0.0933
- combination Emax [9]: 0.655
- combination Emax [10]: 0.0875
- combination Emax (RH-1 (Ewing's Sarcoma)): 0.359
- combination Emax [11]: 0.506
- combination Emax [12]: 0.225
- combination Emax [13]: 0.169

Compound: CN(CCO)CC[C@H](CSc1ccccc1)Nc1ccc(S(=O)(=O)NC(=O)c2ccc(N3CCC([C@@H](O)c4ccccc4-c4ccc(Cl)cc4)CC3)cc2)cc1S(=O)(=O)C(F)(F)F [AZD4320] + C[C@@H](Nc1cc(F)cc(F)c1)c1cc(C(=O)N(C)C)cc2c(=O)cc(N3CCOCC3)oc12 [AZD8186] (first compound max 1 µM, 7x7, partner max 3 µM)
- combination Emax [1]: 0.959
- combination Emax [14]: 0.978
- combination Emax [2]: 0.424
- combination Emax [3]: 0.921
- combination Emax (ES7 (Ewing's Sarcoma)): 0.991
- combination Emax (DSH1 (Bladder Carcinoma)): 0.404
- combination Emax (CAL-78 (Chondrosarcoma)): 0.7
- combination Emax [4]: 0.765
- combination Emax [5]: 0.245
- combination Emax (J82 (Bladder Carcinoma)): 0.282
- combination Emax [7]: 1
- combination Emax [8]: 0.719
- combination Emax (NCI-H2369 (Mesothelioma)): 0.375
- combination Emax [9]: 0.808
- combination Emax [10]: 0.332
- combination Emax (RH-1 (Ewing's Sarcoma)): 0.885
- combination Emax [11]: 0.481
- combination Emax [12]: 0.399
- combination Emax [13]: 0.278

Compound: Cc1c2c(nn1C)CSCc1cc(n(C)n1)CSc1cc(c3ccccc3c1)OCCCc1c(C(=O)O)n(C)c3c-2c(Cl)ccc13 [AZD5991] + C1CN(CCC1(C(=O)N[C@@H](CCO)C2=CC=C(C=C2)Cl)N)C3=NC=NC4=C3C=CN4 [Capivasertib] (first compound max 1 µM, 7x7, partner max 3 µM)
- combination Emax [1]: 0.409
- combination Emax [14]: 0.992
- combination Emax [2]: 0.2
- combination Emax [3]: 0.987
- combination Emax (ES7 (Ewing's Sarcoma)): 0.825
- combination Emax (DSH1 (Bladder Carcinoma)): 0.927
- combination Emax (CAL-78 (Chondrosarcoma)): 0.868
- combination Emax [4]: 0.297
- combination Emax [5]: 0.149
- combination Emax (J82 (Bladder Carcinoma)): 0.201
- combination Emax [6]: 0.143
- combination Emax [7]: 1
- combination Emax [8]: 0.337
- combination Emax (NCI-H2369 (Mesothelioma)): 0.22
- combination Emax [9]: 0.194
- combination Emax [10]: 0.182
- combination Emax (RH-1 (Ewing's Sarcoma)): 0.795
- combination Emax [11]: 0.97
- combination Emax [13]: 0.236

Compound: CCc1c2c(nc3ccc(O)cc13)-c1cc3c(c(=O)n1C2)COC(=O)[C@]3(O)CC [SN-38] + O=C(c1cc(Cc2n[nH]c(=O)c3ccccc23)ccc1F)N1CCN(C(=O)C2CC2)CC1 [Olaparib] (first compound max 0.3 µM, 7x7, partner max 10 µM)
- combination Emax [1]: 1
- combination Emax [2]: 0.831
- combination Emax [3]: 0.96
- combination Emax (ES7 (Ewing's Sarcoma)): 1
- combination Emax (DSH1 (Bladder Carcinoma)): 0.915
- combination Emax [4]: 0.649
- combination Emax [5]: 0.728
- combination Emax (J82 (Bladder Carcinoma)): 0.861
- combination Emax [7]: 0.25
- combination Emax [8]: 1
- combination Emax (NCI-H2369 (Mesothelioma)): 0.265
- combination Emax [9]: 0.681
- combination Emax [10]: 0.675
- combination Emax (RH-1 (Ewing's Sarcoma)): 1
- combination Emax [11]: 0.367
- combination Emax [13]: 0.936
